The values below come from patent US20250186563A1, “UNIT DOSE FORMULATION OF ANTIDOTES FOR FACTOR XA INHIBITORS AND METHODS OF USING THE SAME” (Alexion Pharmaceuticals, Inc., priority 2009, published 2025).

The subject of series [1] is aPTT of pooled human plasma. Put plainly: aPTT human plasma clotting assay (MLA Electra 800 coagulation timer). Format: biochemical.
A short description of series [2]: Sustained reversal of betrixaban-induced anticoagulation in rats. Format: in vivo. Conditions: rat, plasma, intravenous.
A further series deals with thrombin generation. Put plainly: Thrombin generation assay in platelet poor plasma. It is filed as biochemical, human. Particulars: betrixaban 250 nM; in presence of rfVIIa (50-200 nM) and tissue factor; PPP.
The nature of series [3]: In vivo mouse model, PK-PD of betrixaban with antidote. Also noted: species or system C57Bl/6 mice. Particulars: male, C57Bl/6, mouse, plasma, oral, Betrixaban (ng/mL), […] after 15 mg/kg betrixaban PO, 5 min after antidote injection.
The conditions of series [4]: cited from earlier work.
Series [5] deals with enoxaparin-induced anticoagulation. Put plainly: Enoxaparin-induced anticoagulation and its reversal in rats. It is filed as in vivo.
Series [6] deals with blood loss due to fondaparinux. Put plainly: Rat tail transection blood loss model, fondaparinux. Particulars: fondaparinux 25 mg/kg IV bolus, protamine 0.9 mg IV bolus. It is filed as in vivo, Sprague-Dawley rats.
The subject of series [7] is PT of pooled human plasma. Put plainly: Prothrombin time (PT) human plasma clotting assay. Format: biochemical.
Another series concerns fXa (bovine fXa). The experiment in a line: Plasma anti-fXa activity assay (modified Coamatic LMWH kit). Also noted: dose or concentration left out as unconfirmed. Conditions: fondaparinux. It is filed as in vivo.
Series [8] deals with clot formation in human platelet poor plasma. Put plainly: Clotting prolongation assay, 96-well plate format (OD405 turbidity). Format: biochemical. Particulars: 1 U/ml enoxaparin; aPTT reagent.
Series [9] concerns blood loss due to enoxaparin. More on the design: species or system Sprague-Dawley rats. Particulars: in vivo.
In series [10] the test system is PT of rhesus monkey plasma. Put plainly: Prothrombin time in rhesus monkey plasma. It is filed as biochemical, rhesus monkeys. Particulars: 250 nM rivaroxaban; baseline 17.5±1.6 sec.
For series [11] the following is noted: in vivo; cited from earlier work.
Where [12] appears, read: 1 mg/kg/hr, Betrixaban alone (uM), plasma concentration, betrixaban 1.0 mg/kg/hr IV for 30 min, no antidote.
The mark [13] stands for this setting: Betrixaban + antidote (uM), betrixaban plasma concentration, betrixaban infusion then r-Antidote 5 mg bolus + 5 mg/hr.

As to `COc1ccc(NC(=O)c2ccc(C(=N)N(C)C)cc2)c(C(=O)Nc2ccc(Cl)cn2)c1` [betrixaban, [2-({4-[(dimethylamino)iminomethyl]phenyl}carbonylamino)-5-methoxyphenyl]-N-(5-chloro(2-pyridyl))carboxamide], the “aPTT” value was 61.8 s in series [1] (300 nM Betrixaban) and 66.3 s in [1] (400 nM betrixaban). Moreover, the “extension of aPTT” value in series [1] (400 nM betrixaban) was “more than two folds”. Also, the concentration at 30 min was 0.154 µM in [2] (1 mg/kg/hr, Betrixaban + antidote (uM), betrixaban plasma concentration, betrixaban 1.0 mg/kg/hr IV for 30 min, antidote group before antidote dosing) and 0.169 µM in series [2] (setting [12]). The values for the concentration at 35 min in [2] (setting [12]) and in series [2] (setting [13]) were 0.062 µM and 1.57 µM, respectively. The concentration at 60 min in series [2] (setting [12]) came to 0.045 µM; in [2] (setting [13]), 1.88 µM. In addition, the concentration at 90 min in [2] (setting [12]) stood at 0.048 µM; in series [2] (setting [13]) it was 1.19 µM. Moreover, the “inhibition of fXa by betrixaban (thrombin generation)” value in the series on thrombin generation is given as “about 75%”. Further, the concentration at […] amounted to 687 ng/mL in series [3] (Mean, pd-Antidote treated mice); 381 ng/mL in series [3] (Mean, r-Antidote treated mice); 434 ng/mL in series [3] (individual animal, r-Antidote treated mice).

As to protamine sulfate, the “neutralization of enoxaparin activity” value in series [4] (slow intravenous infusion of protamine sulfate, enoxaparin prescribing information) is “up to 60%”. For the same compound, the “reversal of enoxaparin-induced anticoagulation (plasma aPTT)” value in series [5] (rats, enoxaparin 3.0 mg/kg, r-Antidote 5 mg bolus + 5 mg/h or protamine sulfate 0.9 mg) was “sustained reversal”. Also, the “reversal of blood loss due to fondaparinux” value in series [6] (listed as Protamine) was “failed to display corrective activity”; in series [6] (listed as protamine), “did not reverse blood loss”.

For `COc1ccc(-n2nc(C(N)=O)c3c2C(=O)N(c2ccc(N4CCCCC4=O)cc2)CC3)cc1` [apixaban], the “PT” value in series [7] (1 μM apixaban) was 16.4 s.

Consider `CO[C@H]1O[C@H](COS(=O)(=O)O)[C@@H](O[C@@H]2O[C@@H](C(=O)O)[C@@H](O[C@H]3O[C@H](COS(=O)(=O)O)[C@@H](O[C@@H]4O[C@H](C(=O)O)[C@@H](O[C@H]5O[C@H](COS(=O)(=O)O)[C@@H](O)[C@H](O)[C@H]5NS(=O)(=O)O)[C@H](O)[C@H]4O)[C@H](OS(=O)(=O)O)[C@H]3NS(=O)(=O)O)[C@H](O)[C@H]2OS(=O)(=O)O)[C@H](O)[C@H]1NS(=O)(=O)O` [fondaparinux], for which the “anti-fXa activity expressed with enoxaparin as the standard” value in the series with fXa (bovine fXa) (human plasma) was 0.80 U/ml enoxaparin; in the series on fXa (bovine fXa) (rat plasma), 0.66 U/ml enoxaparin.

enoxaparin: the “extension of clotting time compared to control plasma” value in series [8] is “greater than 5 fold”. Further, in series [9], the “maximum blood loss (plateau), of normal rat blood volume” value is given as “approximately 5%”. Besides, the “peak anti fXa activity” value in series [4] (human, in vivo, sc, 1 mg/kg) is 1.1 U/ml. Moreover, the Mean absolute bioavailability in series [4] (human, in vivo, sc) is 92%. The “anti-fXa level corresponding to prescribed dose” value in series [4] (human, in vivo) was “approximately 1 U/mL”. The “peak anticoagulation in rat plasma (Coatest LMW heparin assay)” value in [5] (enoxaparin 1 mg/kg IV bolus) turned out to be 1 anti fXa U/ml; in series [5] (enoxaparin 3 mg/kg IV bolus), 4 anti fXa U/ml. Moreover, in series [5] (rats, enoxaparin 1, 3 and 6 mg/kg IV bolus), the “whole blood INR” value was “dose proportional extensions”.

In the case of `O=C(NC[C@H]1CN(c2ccc(N3CCOCC3=O)cc2)C(=O)O1)c1ccc(Cl)s1` [rivaroxaban], in [10], the “PT (average±standard deviation)” value came out at 32.3 ± 6.1 s. Also, in series [11], the Reported therapeutic concentration entry was “approximately 600 nM”. In series [7] (1 μM rivaroxaban, baseline PT 14.1 sec), the PT worked out at 23.4 s.
